Measured values as given in ChEMBL document CHEMBL3045770, “Design and synthesis of some thieno[2,3-c]pyridazine derivatives of expected anticancer activity” (2013).

Columns and labels:
Type in all cases: functional
HCT-116 = assay: Cytotoxicity against Homo sapiens (human) HCT116 cells after 48 hr by SRB assay; conditions: HCT-116, 48 h
SR = assay: Cytotoxicity against Homo sapiens (human) SR cells after 48 hr by SRB assay
KM12 = assay: Cytotoxicity against Homo sapiens (human) KM12 cells after 48 hr by SRB assay; conditions: KM12, 48 h
IGROV-1 = assay: Cytotoxicity against Homo sapiens (human) IGROV1 cells after 48 hr by SRB assay; conditions: IGROV-1, 48 h
HOP-62 = assay: Cytotoxicity against Homo sapiens (human) HOP62 cells after 48 hr by SRB assay; conditions: HOP-62, 48 h
SF-295 = assay: Cytotoxicity against Homo sapiens (human) SF295 cells after 48 hr by SRB assay; conditions: SF-295, 48 h
CAKI-1 = assay: Cytotoxicity against Homo sapiens (human) Caki1 cells after 48 hr by SRB assay; conditions: CAKI-1, 48 h
ACHN = assay: Cytotoxicity against Homo sapiens (human) ACHN cells after 48 hr by SRB assay
NCI-H460 = assay: Cytotoxicity against Homo sapiens (human) NCI-H460 cells after 48 hr by SRB assay; conditions: NCI-H460, 48 h
U-251 = assay: Cytotoxicity against Homo sapiens (human) U251 cells after 48 hr by SRB assay; conditions: U-251, 48 h
SF-539 = assay: Cytotoxicity against Homo sapiens (human) SF539 cells after 48 hr by SRB assay; conditions: SF-539, 48 h
HOP-92 = assay: Cytotoxicity against Homo sapiens (human) HOP92 cells after 48 hr by SRB assay; conditions: HOP-92, 48 h
NCI-H226 = assay: Cytotoxicity against Homo sapiens (human) NCI-H226 cells after 48 hr by SRB assay; conditions: NCI-H226, 48 h
SK-OV-3 = assay: Cytotoxicity against Homo sapiens (human) SKOV3 cells after 48 hr by SRB assay; conditions: SK-OV-3, 48 h
RXF 393 = assay: Cytotoxicity against Homo sapiens (human) RXF393 cells after 48 hr by SRB assay; conditions: RXF 393, 48 h
SK-MEL-5 = assay: Cytotoxicity against Homo sapiens (human) SK-MEL-5 cells after 48 hr by SRB assay; conditions: SK-MEL-5, 48 h
MDA-MB-435 = assay: Cytotoxicity against Homo sapiens (human) MDA-MB-435 cells after 48 hr by SRB assay; conditions: MDA-MB-435, 48 h
T47D = assay: Cytotoxicity against Homo sapiens (human) T47D cells after 48 hr by SRB assay
MOLT-4 = assay: Cytotoxicity against Homo sapiens (human) MOLT4 cells after 48 hr by SRB assay; conditions: MOLT-4, 48 h
SK-MEL-28 = assay: Cytotoxicity against Homo sapiens (human) SK-MEL-28 cells after 48 hr by SRB assay; conditions: SK-MEL-28, 48 h
SNB-75 = assay: Cytotoxicity against Homo sapiens (human) SNB75 cells after 48 hr by SRB assay; conditions: SNB-75, 48 h
SN12C = assay: Cytotoxicity against Homo sapiens (human) SN12C cells after 48 hr by SRB assay
BT-549 = assay: Cytotoxicity against Homo sapiens (human) BT549 cells after 48 hr by SRB assay; conditions: BT-549, 48 h
Malme-3M = assay: Cytotoxicity against Homo sapiens (human) MALME-3M cells after 48 hr by SRB assay
PC-3 = assay: Cytotoxicity against Homo sapiens (human) PC3 cells after 48 hr by SRB assay; conditions: PC-3, 48 h
UACC-62 = assay: Cytotoxicity against Homo sapiens (human) UACC62 cells after 48 hr by SRB assay; conditions: UACC-62, 48 h
Hs-578T = assay: Cytotoxicity against Homo sapiens (human) Hs 578T cells after 48 hr by SRB assay
SW-620 = assay: Cytotoxicity against Homo sapiens (human) SW620 cells after 48 hr by SRB assay; conditions: SW-620, 48 h
[1] = Cytotoxicity against Homo sapiens (human) NCI-ADR-RES cells after 48 hr by SRB assay
MCF7 = assay: Cytotoxicity against Homo sapiens (human) MCF7 cells after 48 hr by SRB assay; conditions: MCF7, 48 h
TK-10 = assay: Cytotoxicity against Homo sapiens (human) TK10 cells after 48 hr by SRB assay; conditions: TK-10, 48 h
SF-268 = assay: Cytotoxicity against Homo sapiens (human) SF268 cells after 48 hr by SRB assay; conditions: SF-268, 48 h
K562 = assay: Cytotoxicity against Homo sapiens (human) K562 cells after 48 hr by SRB assay; conditions: K562, 48 h
HT-29 = assay: Cytotoxicity against Homo sapiens (human) HT-29 cells after 48 hr by SRB assay; conditions: HT-29, 48 h
[2] = read-out: LC50 (the source's name)

SMILES: Oc1c(-c2nnc(-c3ccc(Cl)cc3)o2)sc2nnc(-c3ccccc3)c(-c3ccccc3)c12
- GI50 (HCT-116): 3.97 µM
- TGI (HCT-116): 7.16 µM
- GI50 (SR): 4.52 µM
- TGI (SR): 18.3 µM
- GI50 (KM12): 4.7 µM
- TGI (KM12): 15 µM
- CC50 (KM12; [2]): 0.0183 µM
- GI50 (IGROV-1): 3.66 µM
- TGI (IGROV-1): 6.35 µM
- CC50 (IGROV-1; [2]): 0.0183 µM
- GI50 (HOP-62): 4.99 µM
- TGI (HOP-62): 18.3 µM
- GI50 (SF-295): 3.28 µM
- TGI (SF-295): 8.15 µM
- GI50 (CAKI-1): 1.84 µM
- TGI (CAKI-1): 9.95 µM
- GI50 (ACHN): 4.25 µM
- TGI (ACHN): 17.4 µM
- CC50 (ACHN; [2]): 0.0183 µM
- GI50 (NCI-H460): 3.15 µM
- TGI (NCI-H460): 8.07 µM
- CC50 (NCI-H460; [2]): 0.0183 µM
- GI50 (U-251): 3.55 µM
- TGI (U-251): 18.3 µM
- CC50 (U-251; [2]): 0.0183 µM
- GI50 (SF-539): 4.75 µM
- TGI (SF-539): 15.8 µM
- CC50 (SF-539; [2]): 0.0183 µM
- GI50 (HOP-92): 3.21 µM
- TGI (HOP-92): 6.74 µM
- CC50 (HOP-92; [2]): 0.0183 µM
- GI50 (NCI-H226): 3.06 µM
- TGI (NCI-H226): 18.3 µM
- CC50 (NCI-H226; [2]): 0.0183 µM
- GI50 (SK-OV-3): 5.04 µM
- TGI (SK-OV-3): 18.3 µM
- CC50 (SK-OV-3; [2]): 0.0183 µM
- GI50 (RXF 393): 3.66 µM
- TGI (RXF 393): 18.3 µM
- GI50 (SK-MEL-5): 5.41 µM
- TGI (SK-MEL-5): 9.1 µM
- CC50 (SK-MEL-5; [2]): 0.0136 µM
- GI50 (MDA-MB-435): 4.65 µM
- TGI (MDA-MB-435): 18.3 µM
- GI50 (T47D): 4.89 µM
- TGI (T47D): 18.3 µM
- GI50 (MOLT-4): 4.47 µM
- TGI (MOLT-4): 18.3 µM
- CC50 (MOLT-4; [2]): 0.0183 µM
- GI50 (SK-MEL-28): 1.14 µM
- TGI (SK-MEL-28): 18.3 µM
- CC50 (SK-MEL-28; [2]): 0.0183 µM
- GI50 (SNB-75): 5.74 µM
- TGI (SNB-75): 18.3 µM
- GI50 (SN12C): 4.65 µM
- TGI (SN12C): 17.6 µM
- GI50 (BT-549): 1.01 µM
- TGI (BT-549): 18.3 µM
- GI50 (Malme-3M): 4.61 µM
- TGI (Malme-3M): 11.3 µM
- GI50 (PC-3): 4.09 µM
- TGI (PC-3): 18.3 µM
- CC50 (PC-3; [2]): 0.0183 µM
- GI50 (UACC-62): 3.77 µM
- TGI (UACC-62): 6.61 µM
- GI50 (Hs-578T): 4.43 µM
- TGI (Hs-578T): 18.3 µM
- GI50 (SW-620): 4.56 µM
- TGI (SW-620): 6.61 µM
- GI50 [1]: 2.58 µM
- TGI [1]: 18.3 µM
- GI50 (MCF7): 4.43 µM
- TGI (MCF7): 18.3 µM
- CC50 (MCF7; [2]): 0.0183 µM
- GI50 (TK-10): 5.14 µM
- TGI (TK-10): 16.9 µM
- CC50 (TK-10; [2]): 0.0183 µM
- GI50 (SF-268): 5.52 µM
- TGI (SF-268): 18.3 µM
- GI50 (K562): 4.17 µM
- TGI (K562): 18.3 µM
- CC50 (K562; [2]): 0.0183 µM
- GI50 (HT-29): 4.56 µM
- TGI (HT-29): 9.1 µM
- CC50 (HT-29; [2]): 0.0183 µM
